Experimental data reported in US20250230193A1, “CYCLIC COMPOUND HAVING SELECTIVE KRAS INHIBITORY EFFECT ON HRAS AND NRAS” (CHUGAI SEIYAKU KABUSHIKI KAISHA, priority 2022, published 2025).
Where a SMILES comes first, the peptide text is derived from it. Bridges are numbered along the chain shown (N, C = ends). [ ]: non-standard residue; d: D form. The star is where a group is joined. hPhe(3-Cl-4-CF3) = N[C@@H](CCc1ccc(C(F)(F)F)c(Cl)c1)C(=O)O; NPrPhe(4-CF3) = CCCN[C@@H](Cc1ccc(C(F)(F)F)cc1)C(=O)O; NMeGly(cPent) = CN[C@H](C(=O)O)C1CCCC1; Pro(4,4-F2) = O=C(O)[C@@H]1CC(F)(F)CN1; NMeD = CN[C@@H](CC(=O)O)C(=O)O; NMeL = CN[C@@H](CC(C)C)C(=O)O; Morpholide = C1CN(*)CCO1; Ac5c = NC1(C(=O)O)CCCC1; Ac4c = NC1(C(=O)O)CCC1; Sar = CNCC(=O)O

Legend:
[1] = biological target: GDP-bound HRAS wild-type protein (Homo sapiens, UniProt P01112); assay: Binding to HRAS by surface plasmon resonance (SPR), Single Cycle Kinetics; details: for HRAS/KRAS (ratio of KD value with respect to HRAS to KD value with respect to KRAS): GDP-bound HRAS wild-type vs GDP-bound KRAS wild-type
[2] = biological target: GDP-bound NRAS wild-type protein (Homo sapiens, UniProt P01111); assay: Binding to NRAS by surface plasmon resonance (SPR), Single Cycle Kinetics; details: for NRAS/KRAS (ratio of KD value with respect to NRAS to KD value with respect to KRAS): GDP-bound NRAS wild-type vs GDP-bound KRAS wild-type
Sequence of GDP-bound NRAS wild-type protein (P01111 whole entry): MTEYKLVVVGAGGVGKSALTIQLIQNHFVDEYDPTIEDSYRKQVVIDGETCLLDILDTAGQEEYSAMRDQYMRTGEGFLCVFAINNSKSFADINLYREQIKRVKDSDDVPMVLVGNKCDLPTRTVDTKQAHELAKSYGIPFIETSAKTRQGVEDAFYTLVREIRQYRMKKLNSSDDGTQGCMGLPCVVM

Sequence of GDP-bound HRAS wild-type protein (P01112 whole entry): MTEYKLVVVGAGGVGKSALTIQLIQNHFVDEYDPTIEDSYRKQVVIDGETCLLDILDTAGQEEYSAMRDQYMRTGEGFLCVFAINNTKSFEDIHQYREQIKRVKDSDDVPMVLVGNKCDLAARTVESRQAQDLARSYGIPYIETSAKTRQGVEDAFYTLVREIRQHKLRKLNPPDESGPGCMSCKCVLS

CCO[C@@H]1C[C@H]2C(=O)NC3(CCC3)C(=O)N(C)[C@@H](C3CCCC3)C(=O)N(CCC3CCCC3)[C@H](C(=O)N(C)C)CC(=O)N(C)[C@@H](CC(C)C)C(=O)N[C@@H]([C@@H](C)CC)C(=O)N(C)CC(=O)N(C)[C@H]3CCCCCN(C3=O)[C@@H](Cc3ccc(F)cc3)C(=O)N(C)CC(=O)N[C@@H](CCc3ccc(C(F)(F)F)c(Cl)c3)C(=O)N2C1 [PP0976]
HRAS/KRAS (ratio of KD value with respect to HRAS to KD value with respect to KRAS) ([1]; KD ratio, SPR): B (a compound having 3 or more and less than 10 is denoted as B) | NRAS/KRAS (ratio of KD value with respect to NRAS to KD value with respect to KRAS) ([2]; KD ratio, SPR): B (a compound having 3 or more and less than 10 is denoted as B)

CCC[C@H]1C(=O)N[C@@H]([C@@H](C)CC)C(=O)N(C2CC2)CC(=O)N(C)[C@H]2C/C=C\CCN(C2=O)[C@@H](Cc2ccc(C(F)(F)F)cc2)C(=O)N(C)CC(=O)N[C@@H](CCc2ccc(Cl)c(Cl)c2)C(=O)N2C[C@H](OCC)C[C@H]2C(=O)NC2(CC(C)(C)C2)C(=O)N(C)[C@@H](CC2CCC2)C(=O)N(C)[C@H](C(=O)N(C)C)CC(=O)N1C [PP2819]
HRAS/KRAS (ratio of KD value with respect to GDP-bound HRAS wild-type protein to KD value with respect to KRAS) ([1]; class symbols): A (a compound having 10 or more and less than 20 is denoted as A) | NRAS/KRAS (ratio of KD value with respect to GDP-bound NRAS wild-type protein to KD value with respect to KRAS) ([2]; class symbols): A (a compound having 10 or more and less than 20 is denoted as A)

CCO[C@@H]1C[C@H]2C(=O)NC3(CCC(F)(F)CC3)C(=O)N(C)[C@@H](C3CCCC3)C(=O)N(C)[C@H](C(=O)N3CCOCC3)CC(=O)N(C)[C@@H](CC(C)C)C(=O)N[C@@H]([C@@H](C)CC)C(=O)N(C)CC(=O)N(C)[C@H]3CCCCCN(C3=O)[C@@H](Cc3ccc(C(F)(F)F)cc3)C(=O)N(C)CC(=O)N[C@@H](CCc3cc(F)c(C(F)(F)F)c(F)c3)C(=O)N2C1 [PP0728]
HRAS/KRAS (ratio of KD value with respect to GDP-bound HRAS wild-type protein to KD value with respect to KRAS) ([1]; SPR): B (a compound having 3 or more and less than 10 is denoted as B) | NRAS/KRAS (ratio of KD value with respect to GDP-bound NRAS wild-type protein to KD value with respect to KRAS) ([2]; SPR): B (a compound having 3 or more and less than 10 is denoted as B)

CCCN1C(=O)CN(C)C(=O)[C@@H]2CCCN2C(=O)[C@H]([C@@H](C)CC)NC(=O)[C@H](CC(C)C)N(C)C(=O)C[C@@H](C(=O)N2CCOCC2)N(C)C(=O)[C@H](C2CCCC2)N(C)C(=O)C2(CCCC2)NC(=O)[C@@H]2CCCN2C(=O)[C@H](CCc2ccc(C(F)(F)F)c(Cl)c2)NC(=O)CN(C)C(=O)[C@@H]1Cc1ccc(C(F)(F)F)cc1 [PP0165] ([NMeL]IP[Sar][NPrPhe(4-CF3)][Sar][hPhe(3-Cl-4-CF3)]P[Ac5c][NMeGly(cPent)][NMeD]-Morpholide; lactam N-11)
HRAS/KRAS (ratio of KD for GDP-bound HRAS wild-type to KD for KRAS) ([1]; SPR): B (a compound having 3 or more and less than 10 is denoted as B) | NRAS/KRAS (ratio of KD for GDP-bound NRAS wild-type to KD for KRAS) ([2]; SPR): B (a compound having 3 or more and less than 10 is denoted as B)

CCC[C@H]1C(=O)N[C@@H]([C@@H](C)CC)C(=O)N(C)CC(=O)N(C)[C@H]2C/C=C\CCN(C2=O)[C@@H](Cc2ccc(C)cc2)C(=O)N(C)CC(=O)N[C@@H](CCc2ccc(C(F)(F)F)c(Cl)c2)C(=O)N2C[C@H](OCC)C[C@H]2C(=O)NC2(CC(C)(C)C2)C(=O)N(C)[C@@H](C(CC)CC)C(=O)N(C)[C@H](C(=O)N(C)C)CC(=O)N1C [PP2146]
HRAS/KRAS (ratio of KD value with respect to HRAS to KD value with respect to KRAS) ([1]; SPR): A (a compound having 10 or more and less than 20 is denoted as A) | NRAS/KRAS (ratio of KD value with respect to NRAS to KD value with respect to KRAS) ([2]; SPR): A (a compound having 10 or more and less than 20 is denoted as A)

CCO[C@@H]1C[C@H]2C(=O)NC3(CCC3)C(=O)N(C)[C@@H](C3CCCC3)C(=O)N(C)[C@H](C(=O)N3CCOCC3)CC(=O)N(C)[C@@H](Cc3cccc(C)c3)C(=O)N[C@@H]([C@@H](C)CC)C(=O)N(C)CC(=O)N(C)[C@H]3CCCCCN(C3=O)[C@@H](Cc3ccc(C(F)(F)F)cc3)C(=O)N(C)CC(=O)N[C@@H](CCc3cc(F)c(C(F)(F)F)c(F)c3)C(=O)N2C1 [PP0932]
HRAS/KRAS (ratio of KD value with respect to HRAS to KD value with respect to KRAS) ([1]; KD ratio, SPR): B (a compound having 3 or more and less than 10 is denoted as B) | NRAS/KRAS (ratio of KD value with respect to NRAS to KD value with respect to KRAS) ([2]; KD ratio, SPR): B (a compound having 3 or more and less than 10 is denoted as B)

CCCN1C(=O)CN(C)C(=O)CNC(=O)[C@H]([C@@H](C)CC)NC(=O)[C@H](CC(C)C)N(C)C(=O)C[C@@H](C(=O)N2CCOCC2)N(C)C(=O)[C@H](C2CCCC2)N(C)C(=O)C2(CCC2)NC(=O)[C@@H]2CC(F)(F)CN2C(=O)[C@H](CCc2ccc(C(F)(F)F)c(Cl)c2)NC(=O)CN(C)C(=O)[C@@H]1Cc1ccc(C(F)(F)F)cc1 [PP0395] ([NMeL]IG[Sar][NPrPhe(4-CF3)][Sar][hPhe(3-Cl-4-CF3)][Pro(4,4-F2)][Ac4c][NMeGly(cPent)][NMeD]-Morpholide; lactam N-11)
HRAS/KRAS (ratio of KD for GDP-bound HRAS wild-type to KD for KRAS) ([1]; SPR): C (A compound having a KD ratio of 0.1 or more and less than 3 is denoted as C) | NRAS/KRAS (ratio of KD for GDP-bound NRAS wild-type to KD for KRAS) ([2]; SPR): B (a compound having 3 or more and less than 10 is denoted as B)
